In the PolyMetriX glass transition set:
± gives the standard deviation of the reports.

SMILES | glass transition temperature [°C]
*c1ccc2c(c1)C(CCCCCC)(CCCCCC)c1cc(-c3ccc4c(c3)c3cc(*)ccc3n4-c3ccc(OC)cc3)ccc1-2 (repeat unit) | 174.00
*CCC(C)(C)C(*)(C)C (repeat unit) | 87.00
*Nc1ccc(NC(=O)CCCCCCC(*)=O)cc1 (repeat unit) | 138.00
*CCC[Si](*)(C)c1ccccc1 (repeat unit) | -1.50
*c1ccc2c(c1)C(=O)N(c1ccc(OCCN(CCOc3ccc(N4C(=O)c5ccc(C(*)(C(F)(F)F)C(F)(F)F)cc5C4=O)cc3)c3ccc(C(C#N)=C(C#N)C#N)cc3)cc1)C2=O (repeat unit) | 218.00
*CC(*)(C)C(=O)OCC=C (repeat unit) | 94.00
*CC(*)C(=O)OCCCCCCCCCCCOc1ccc(C(=O)Oc2ccc(-c3ccc(OC(C)CCCCCC)cc3)cc2)cc1 (repeat unit) | 50.00
*c1ccc(C(c2ccc(-c3cc(-c4ccccc4)c4cc(Oc5ccc6nc(*)cc(-c7ccccc7)c6c5)ccc4n3)cc2)(C(F)(F)F)C(F)(F)F)cc1 (repeat unit) | 260.00
*CC(*)(C)C(=O)OCc1ccc(Cl)cc1 (repeat unit) | 43.60
*CCOC(=O)CC(C)O* (repeat unit) | -37.10
*c1cc(SCCCCCC)c(*)s1 (repeat unit) | 32.00
*CCOCCOCCN1C(=O)c2ccc(C(=O)Oc3ccc(C(C)(C)c4ccc(OC(=O)c5ccc6c(c5)C(=O)N(*)C6=O)cc4)cc3)cc2C1=O (repeat unit) | 118.00
*c1ccc(Oc2ccc(P(C)(=O)c3ccc(Oc4ccc(C5(*)OC(=O)c6ccccc65)cc4)cc3)cc2)cc1 (repeat unit) | 263.00
*/C=C/c1ccc2c(c1)C(CCCCCCOc1ccc3ccc(=O)oc3c1)(CCCCCCOc1ccc3ccc(=O)oc3c1)c1cc(/C=C/c3ccc4c(c3)C(CCCCCC)(CCCCCC)c3cc(*)ccc3-4)ccc1-2 (repeat unit) | 115.00
*C1C(=O)N(CCCOc2ccc(-c3ccc(C#N)cc3)cc2)C(=O)C1* (repeat unit) | 130.00
*Oc1ccc(Sc2ccc(OC(*)=O)cc2)cc1 (repeat unit) [Poly(4,4'-thiodiphenylene carbonate)] | 113.4 ± 2.1
*C1C(*)C2CC1C(C(=O)OCCC1CC3CCC1C3)C2C(=O)OCCC1CC2CCC1C2 (repeat unit) | 260.00
*CC(C)(C)C1C(=O)N(CCCC)C(=O)C1* (repeat unit) | 80.00
*CCCCCCCCCCCCCCCCCCNC(=O)NCc1ccc(CNC(=O)N*)cc1 (repeat unit) | 52.00
*c1ccc(Oc2ccc(NC(=O)c3ccc(Oc4cccc5c4C(=O)N(*)C5=O)cc3)cc2)cc1 (repeat unit) | 253.00
*Oc1ccc(OC(=O)c2cc(OCCCCCCCOCC3CCCN3c3ccc([N+](=O)[O-])cc3)c(C(*)=O)cc2OCCCCCCCOCC2CCCN2c2ccc([N+](=O)[O-])cc2)cc1 (repeat unit) | 50.00
*CCS* (repeat unit) [Poly(ethylene sulfide)] | -25.83 ± 34
*Oc1ccc(-c2ccc(OC(=O)c3ccc(C(*)=O)cc3Sc3ccc4ccccc4c3)cc2)cc1 (repeat unit) | 141.00
*Oc1c(C)cc(C(C)(C)c2cc(C)c(OC(=O)c3ccc(C(*)=O)cc3)c(C)c2)cc1C (repeat unit) | 239.00
*c1ccc(Oc2ccc(S(=O)(=O)c3ccc(Oc4ccc(N5C(=O)c6ccc(Oc7cccc8c(Oc9ccc%10c(c9)C(=O)N(*)C%10=O)cccc78)cc6C5=O)cc4)cc3)cc2)cc1 (repeat unit) | 201.00
*CC(*)C(=O)OCCN(C)C (repeat unit) | -39.00
*CCN(*)C(=O)c1cc(F)c(F)c(F)c1 (repeat unit) | 65.00
*C(=O)c1ccc2c(c1)C(=O)N(c1ccc(-c3cc(-c4ccc(OCCCC#N)cc4)cc(-c4ccc(N5C(=O)c6ccc(*)cc6C5=O)cc4)n3)cc1)C2=O (repeat unit) | 342.00
*CC(*)N (repeat unit) | 57.00
*Oc1ccc(C(c2ccc(OC(=O)c3ccc(C(c4ccc(C(*)=O)cc4)(C(F)(F)F)C(F)(F)F)cc3)cc2)(C(F)(F)F)C(F)(F)F)cc1 (repeat unit) | 135.00

Continued, values first:

glass transition temperature [°C] | SMILES
85.00 | *CCCCCCCCCCCCNC(=O)CCc1ccc(CCC(=O)N*)cc1 (repeat unit)
134.00 | *c1cccc(OCCCCCCCCCOc2cccc(N3C(=O)c4ccc(-c5cccc6c5C(=O)N(*)C6=O)cc4C3=O)c2)c1 (repeat unit)
276.00 | *C(=O)c1ccc2c(c1)C(=O)N(c1ccc(C(=O)c3cccc(C(=O)c4ccc(N5C(=O)c6ccc(*)cc6C5=O)cc4)c3)cc1)C2=O (repeat unit)
160.00 | *Oc1cccc(NC(=O)CCCCC(=O)Nc2ccc(*)cc2)c1 (repeat unit)
138.00 | *Oc1ccc(CC2(Cc3ccc(*)cc3)c3ccccc3-c3ccccc32)cc1 (repeat unit)
42.50 | *OC(=O)c1ccc(CCCCCc2ccc(C(*)=O)cc2)cc1 (repeat unit)
310.00 | *C(=O)c1ccc2c(c1)C(=O)N(c1c(C)cc(-c3cc(C)c(N4C(=O)c5ccc(*)cc5C4=O)c(C)c3)cc1C)C2=O (repeat unit)
173.00 | *c1ccc(-c2nnc(*)o2)c(OCCCCCCCC)c1 (repeat unit)
70.00 | *Oc1ccc(OC(=O)c2ccc(OCCCCCCCCOc3ccc(C(*)=O)cc3)cc2)cc1C(=O)CC (repeat unit)
376.00 | *C(=O)c1ccc2c(c1)C(=O)N(c1ccc(C3(c4ccc(N5C(=O)c6ccc(*)cc6C5=O)cc4)c4ccccc4-c4ccccc43)cc1)C2=O (repeat unit)
112.50 | *CC(*)(Cl)C(=O)OCCCCCCOc1ccc(C(=O)Oc2ccc(OCCCC)cc2)cc1 (repeat unit)
280.00 | *c1ccc(NC(=O)CN2C(=O)c3ccc(C(c4ccc5c(c4)C(=O)N(CC(=O)Nc4ccc(-c6nnc(*)o6)cc4)C5=O)(C(F)(F)F)C(F)(F)F)cc3C2=O)cc1 (repeat unit)
44.00 | *CC(*)(C)C(=O)OCCCCCC(=O)Oc1ccc(OC(=O)c2ccc(OCCCCCC)cc2)cc1 (repeat unit)
340.00 | *Nc1ccc(-c2ccc(NC(=O)c3ccc(C(*)=O)cc3)cc2)cc1 (repeat unit)
314.50 | *C(=O)c1ccc2c(c1)C(=O)N(c1ccc(Oc3ccc(C(=O)c4cccc(C(=O)c5ccc(Oc6ccc(N7C(=O)c8ccc(*)cc8C7=O)cc6)cc5)n4)cc3)cc1)C2=O (repeat unit)
145.00 | *Oc1ccc(C(C)(C)c2ccc(Oc3cncc(*)n3)cc2)cc1 (repeat unit)
149.00 | *CC(O)CN(*)c1cc(C)c(/N=N/c2ccc([N+](=O)[O-])cc2C)c(C)c1 (repeat unit)
216.00 | *c1ccc(Cc2ccc(N3C(=O)c4ccc(Oc5ccc6c(c5)C(=O)N(*)C6=O)cc4C3=O)c(C(C)(C)C)c2)cc1C(C)(C)C (repeat unit)
